# Measurements from the NIST ThermoML archive (doi:10.1021/je3003783).
# ± gives the expanded uncertainty stated by the source.
# Details: 101.33 kPa, Liquid, Vibrating tube method
mass density (298.15 K),mass density (323.15 K),mass density (348.15 K),mass density (363.15 K),SMILES
1012.35 ± 0.31 kg/m3,998.05 ± 0.3 kg/m3,983.99 ± 0.3 kg/m3,975.67 ± 0.3 kg/m3,CCCCCCCC[n+]1ccn(C)c1.[Cl-] [1-methyl-3-octylimidazolium chloride]
1081.59 ± 0.38 kg/m3,1067.28 ± 0.37 kg/m3,1053.35 ± 0.35 kg/m3,1045.06 ± 0.34 kg/m3,CCCCn1cc[n+](C)c1.[Cl-] [1-butyl-3-methylimidazolium chloride]

SMILES,mass density (298.15 K),mass density (323.15 K),mass density (348.15 K),mass density (363.15 K)
CCCCCCn1cc[n+](C)c1.[Cl-] [1-hexyl-3-methylimidazolium chloride],1040.92 ± 0.34 kg/m3,1026.73 ± 0.32 kg/m3,1012.81 ± 0.31 kg/m3,1004.49 ± 0.3 kg/m3
